Results: patent US4470976A, “Poly-cation salt of 4-O-polyhexaose-thio-arylene sulfates” (American Cyanamid Company, priority 1983, dated 1984)
Structures can show the parent of a compound that is named as a salt. Where two headings read alike, the source gives them in different places.

Columns and labels:
[1] = target: activated human C1 (Homo sapiens, UniProt P09871); test: Test Code 026 (C1 inhibitor); format: biochemical; conditions: serial dilution assay, twofold dilutions; higher well number indicates higher activity
[2] = system: late components of human complement (C3-C9); test: Test Code 035 (C3-C9 inhibitor), lysis of EAC 142; format: biochemical; conditions: serial dilution assay, twofold dilutions; higher well number indicates higher activity
[3] = system: serum complement activity; test: Guinea Pig Intraperitoneal Test (GPIP); format: in vivo; conditions: Cavia porcellus, ip, 200 mg/kg i.p.
Method: The concentration of compound inhibiting 50% is reported; and (iv) Guinea Pig Intraperitoneal Test (GPIP): Guinea pigs weighing about 300 g are dosed intraperitoneally (i.p.) with 200 mg/kg of the test compound dissolved in saline and adjusted to pH 7-8. Approximately 0.4 ml blood samples, taken by orbital sinus puncture 2 hours and 6 hours after injections, are collected directly into centifuge tubes; 5 ml blood samples, taken by decapitation 24 hours after injection, are collected directly into beakers. The samples are allowed to clot, centrifuged, and the resultant sera are assayed for complement activity using the capillary complement assay. Percent inhibition is calculated by comparison with simultaneous controls.

[4] = system: human serum complement; conditions: both in vitro and in vivo; cited from earlier work
[5] = serum complement 2 hours after injection, read-out: In vivo Activity Guinea Pig % Inhibition Intraperitoneal, 2 hours
[6] = serum complement 6 hours after injection, read-out: In vivo Activity Guinea Pig % Inhibition Intraperitoneal, 6 hours
[7] = serum complement 24 hours after injection, read-out: In vivo Activity Guinea Pig % Inhibition Intraperitoneal, 24 hours

In the case of “4-(Sulfanilamido)phenyl 2,3,6-tri-O-sulfo-4-O-(2,3,4,6-tetra-O-sulfo-α-D-glucopyranosyl)-1-thio-β-D-glucopyranoside octasodium salt”, the “In vitro Activity C1 026 Wells” value [1] was 5 Wells.
With `O=S(=O)(O)OC[C@H]1O[C@@H]([S+]([O-])c2cc(OS(=O)(=O)O)ccc2OS(=O)(=O)O)[C@H](OS(=O)(=O)O)[C@@H](OS(=O)(=O)O)[C@@H]1O[C@H]1O[C@H](COS(=O)(=O)O)[C@@H](OS(=O)(=O)O)[C@H](OS(=O)(=O)O)[C@H]1OS(=O)(=O)O` (stereo partly drawn) [2,5-Bis(sulfooxy)phenyl 2,3,6-tri-O-sulfo-4-O-(2,3,4,6-tetra-O-sulfo-α-D-glucopyranosyl)-1-sulfinyl-β-D-glucopyranoside nonasodium salt] the “In vitro Activity C1 026 Wells” value [1] was 11 Wells and the “In vitro Activity C-Late 035 Wells” value [2] was 2 Wells.
With `O=S(=O)([O-])OC[C@H]1O[C@@H](Sc2cc(OS(=O)(=O)[O-])ccc2OS(=O)(=O)[O-])[C@H](OS(=O)(=O)[O-])[C@@H](OS(=O)(=O)[O-])[C@@H]1O[C@H]1O[C@H](COS(=O)(=O)[O-])[C@@H](OS(=O)(=O)[O-])[C@H](OS(=O)(=O)[O-])[C@H]1OS(=O)(=O)[O-].[Na+].[Na+].[Na+].[Na+].[Na+].[Na+].[Na+].[Na+].[Na+]` [2,5-Bis(sulfooxy)phenyl 2,3,6-tri-O-sulfo-4-O-(2,3,4,6-tetra-O-sulfo-α-D-glucopyranosyl)-1-thio-β-D-glucopyranoside nonasodium salt] the “In vitro Activity C1 026 Wells” value [1] was 9 Wells, the “In vitro Activity C-Late 035 Wells” value [2] was 2 Wells and the inhibition at 200 mg/kg [3, 5] was 83%. For the same compound, the inhibition at 200 mg/kg [3, 6] was 77%.
With `O=C([O-])c1ccccc1S[C@@H]1O[C@H](COS(=O)(=O)[O-])[C@@H](O[C@H]2O[C@H](COS(=O)(=O)[O-])[C@@H](OS(=O)(=O)[O-])[C@H](OS(=O)(=O)[O-])[C@H]2OS(=O)(=O)[O-])[C@H](OS(=O)(=O)[O-])[C@H]1OS(=O)(=O)[O-].[Na+].[Na+].[Na+].[Na+].[Na+].[Na+].[Na+].[Na+]` [2-Carboxyphenyl 2,3,6-tri-O-sulfo-4-O-(2,3,4,6-tetra-O-sulfo-α-D-glucopyranosyl)-1-thio-β-D-glucopyranoside octasodium salt] the “In vitro Activity C1 026 Wells” value [1] was 8 Wells.
With `O=S(=O)(O)OC[C@H]1O[C@@H](Sc2cccc(S)c2)[C@H](OS(=O)(=O)O)[C@@H](OS(=O)(=O)O)[C@@H]1O[C@H]1O[C@H](COS(=O)(=O)O)[C@@H](OS(=O)(=O)O)[C@H](OS(=O)(=O)O)[C@H]1OS(=O)(=O)O.[Na+].[Na+].[Na+].[Na+].[Na+].[Na+].[Na+].[Na+]` [3-Mercaptophenyl 2,3,6-tri-O-sulfo-4-O-(2,3,4,6-tetra-O-sulfo-α-D-glucopyranosyl)-1-thio-β-D-glucopyranoside octasodium salt] the “In vitro Activity C1 026 Wells” value [1] was 11 Wells and the “In vitro Activity C-Late 035 Wells” value [2] was 3 Wells.
With `O=S(=O)([O-])OC[C@H]1O[C@@H](Sc2cccc(C(F)(F)F)c2)[C@H](OS(=O)(=O)[O-])[C@@H](OS(=O)(=O)[O-])[C@@H]1O[C@H]1O[C@H](COS(=O)(=O)[O-])[C@@H](OS(=O)(=O)[O-])[C@H](OS(=O)(=O)[O-])[C@H]1OS(=O)(=O)[O-].[Na+].[Na+].[Na+].[Na+].[Na+].[Na+].[Na+]` [3-Trifluoromethylphenyl 2,3,6-tri-O-sulfo-4-O-(2,3,4,6-tetra-O-sulfo-α-D-glucopyranosyl)-1-thio-β-D-glucopyranoside heptasodium salt] the “In vitro Activity C1 026 Wells” value [1] was 5 Wells.
For `CCOC(=O)C(=O)Nc1ccc(S[C@@H]2O[C@H](COS(=O)(=O)O)[C@@H](O[C@H]3O[C@H](COS(=O)(=O)O)[C@@H](OS(=O)(=O)O)[C@H](OS(=O)(=O)O)[C@H]3OS(=O)(=O)O)[C@H](OS(=O)(=O)O)[C@H]2OS(=O)(=O)O)cc1` [4-(Ethoxyoxalylamino)phenyl 2,3,6-tri-O-sulfo-4-O-(2,3,4,6-tetra-O-sulfo-α-D-glucopyranosyl)-1-thio-β-D-glucopyranoside heptasodium salt], the “In vitro Activity C1 026 Wells” value [1] was 8 Wells, the inhibition at 200 mg/kg [3, 5] was 81% and the inhibition at 200 mg/kg [3, 6] was 71%. It also gave an inhibition at 200 mg/kg [3, 7] of 32%.
For `Nc1ccc(S[C@@H]2O[C@H](COS(=O)(=O)[O-])[C@@H](O[C@H]3O[C@H](COS(=O)(=O)[O-])[C@@H](OS(=O)(=O)[O-])[C@H](OS(=O)(=O)[O-])[C@H]3OS(=O)(=O)[O-])[C@H](OS(=O)(=O)[O-])[C@H]2OS(=O)(=O)[O-])cc1.[Na+].[Na+].[Na+].[Na+].[Na+].[Na+].[Na+]` [4-Aminophenyl 2,3,6-tri-O-sulfo-4-O-(2,3,4,6-tetra-O-sulfo-α-D-glucopyranosyl)-1-thio-β-D-glucopyranoside heptasodium salt], the “In vitro Activity C1 026 Wells” value [1] was 9 Wells, the inhibition at 200 mg/kg [3, 5] was 61% and the inhibition at 200 mg/kg [3, 6] was 19%. For the same compound, the inhibition at 200 mg/kg [3, 7] was 42%.
For `O=S(=O)([O-])OC[C@H]1O[C@@H](Sc2ccc(F)cc2)[C@H](OS(=O)(=O)[O-])[C@@H](OS(=O)(=O)[O-])[C@@H]1O[C@H]1O[C@H](COS(=O)(=O)[O-])[C@@H](OS(=O)(=O)[O-])[C@H](OS(=O)(=O)[O-])[C@H]1OS(=O)(=O)[O-].[Na+].[Na+].[Na+].[Na+].[Na+].[Na+].[Na+]` [4-Fluorophenyl 2,3,6-tri-O-sulfo-4-O-(2,3,4,6-tetra-O-sulfo-α-D-glucopyranosyl)-1-thio-β-D-glucopyranoside heptasodium salt], the “In vitro Activity C1 026 Wells” value [1] was 8 Wells.
With `COc1ccc(S[C@@H]2O[C@H](COS(=O)(=O)[O-])[C@@H](O[C@H]3O[C@H](COS(=O)(=O)[O-])[C@@H](OS(=O)(=O)[O-])[C@H](OS(=O)(=O)[O-])[C@H]3OS(=O)(=O)[O-])[C@H](OS(=O)(=O)[O-])[C@H]2OS(=O)(=O)[O-])cc1.[Na+].[Na+].[Na+].[Na+].[Na+].[Na+].[Na+]` [4-Methoxyphenyl 2,3,6-tri-O-sulfo-4-O-(2,3,4,6-tetra-O-sulfo-α-D-glucopyranosyl)-1-thio-β-D-glucopyranoside heptasodium salt] the “In vitro Activity C1 026 Wells” value [1] was 4 Wells.
In the case of `O=S(=O)([O-])OC[C@H]1O[C@@H](Sc2ccc(OS(=O)(=O)[O-])cc2)[C@H](OS(=O)(=O)[O-])[C@@H](OS(=O)(=O)[O-])[C@@H]1O[C@H]1O[C@H](COS(=O)(=O)[O-])[C@@H](OS(=O)(=O)[O-])[C@H](OS(=O)(=O)[O-])[C@H]1OS(=O)(=O)[O-].[Na+].[Na+].[Na+].[Na+].[Na+].[Na+].[Na+].[Na+]` [4-Sulfooxyphenyl 2,3,6-tri-O-sulfo-4-O-(2,3,4,6-tetra-O-sulfo-α-D-glucopyranosyl)-1-thio-β-D-glucopyranoside octasodium salt], the “In vitro Activity C1 026 Wells” value [1] was 8 Wells.
Work on `CC(=O)Nc1ccc(S[C@@H]2O[C@H](COS(=O)(=O)O)[C@@H](O[C@@H]3O[C@H](COS(=O)(=O)O)[C@@H](OS(=O)(=O)O)[C@H](OS(=O)(=O)O)[C@H]3OS(=O)(=O)O)[C@H](OS(=O)(=O)O)[C@H]2OS(=O)(=O)O)cc1` [4-acetamidophenyl 2,3,6-tri-O-sulfo-4-O-(2,3,4,6-tetra-O-sulfo-β-D-glucopyranosyl)-1-thio-β-D-glucopyranoside heptasodium salt] yielded an inhibition at 200 mg/kg [3, 5] of 86%, an inhibition at 200 mg/kg [3, 6] of 66% and an inhibition at 200 mg/kg [3, 7] of 15%.
In the case of pentosan-polysulfoester, the “anticomplementary activity, judged by the reduction in total hemolytic complement activity” value [4] is listed as “has an anticomplementary activity on human serum, both in vitro and in vivo”.
